The values that follow come from patent publication US9790169B2, “IDO inhibitors” (BRISTOL-MYERS SQUIBB COMPANY, priority 2015, dated 2017).

A word on the IC50: it is the point on the concentration scale where inhibition reaches its midpoint. Low values mean higher potency, high ones lower potency.

This assay has as its target human IDO1 (Homo sapiens, UniProt P14902). Nature of the assay: Assessment of human IDO-1 inhibitory activity in Hela cells (Interferon-gamma stimulated HeLa cells, Ehrlich reagent, absorbance 490 nm). The format is cell-based. Conditions: Hela Human IDO-1 cellular assay. Details: endogenous in cells; host or cells: HeLa cells stimulated with interferon-gamma. The essentials: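 IDO activity induced by 18 h IFN-γ (human 10 ng/ml or murine 5 ng/ml, final) after 1 h compound pre-treatment of HeLa cells at 37 °C. Supernatant kynurenine detected via Ehrlich reagent absorbance at 490 nm following 3% TCA at 50 °C; IC50 set against no-IFN-γ and untreated-stimulated controls.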

Where only a bound is given, the exact number is not on record here.

Chain of human IDO1 (P14902 whole entry): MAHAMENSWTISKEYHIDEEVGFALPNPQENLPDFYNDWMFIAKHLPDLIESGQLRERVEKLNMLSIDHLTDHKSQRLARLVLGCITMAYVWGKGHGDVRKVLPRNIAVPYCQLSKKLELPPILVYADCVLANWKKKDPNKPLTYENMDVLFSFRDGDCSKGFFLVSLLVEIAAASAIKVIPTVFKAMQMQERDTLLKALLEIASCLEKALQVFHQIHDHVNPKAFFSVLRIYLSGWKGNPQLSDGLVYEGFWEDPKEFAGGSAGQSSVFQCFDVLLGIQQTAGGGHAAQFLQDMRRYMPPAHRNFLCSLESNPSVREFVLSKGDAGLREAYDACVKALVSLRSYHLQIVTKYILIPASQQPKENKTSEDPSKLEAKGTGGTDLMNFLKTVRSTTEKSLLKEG

In the case of `COCC(CC(=O)O)c1cc(F)c(N(CC(C)C)CC(C)C)c(Nc2ccc(Cl)cc2)c1` (single isomer, unassigned) [Example 920, 3-(3-((4-Chlorophenyl)amino)-4-(diisobutylamino)-5-fluorophenyl)-4-methoxybutanoic acid], the IC50 is below 5 nM. `CCc1ccc(Nc2cc(C(COC)CC(=O)O)cc(F)c2N(CC(C)C)CC(C)C)cc1` (single isomer, unassigned) [Example 922, 3-(4-(diisobutylamino)-3-((4-ethylphenyl)amino)-5-fluorophenyl)-4-methoxybutanoic acid] yielded an IC50 below 50 nM.

In the case of `CCOc1ccc(Nc2cc(C(COC)CC(=O)O)cc(F)c2N(CC(C)C)CC(C)C)cc1` (single isomer, unassigned) [Example 923, 3-(4-(diisobutylamino)-3-((4-ethoxyphenyl)amino)-5-fluorophenyl)-4-methoxybutanoic acid], the IC50 is below 50 nM. `COCC(CC(=O)O)c1cc(F)c(N(CC(C)C)CC(C)C)c(Nc2ccc3c(c2)OC(F)(F)O3)c1` (single isomer, unassigned) [Example 924, 3-(3-((2,2-difluorobenzo[d] [1,3]dioxol-5-yl)amino)-4-(diisobutylamino)-5-fluorophenyl)-4-methoxybutanoic acid] displayed a 50% inhibitory concentration (IC50) below 50 nM. Compound `COCC(CC(=O)O)c1cc(F)c(N(CC(C)C)CC(C)C)c(Nc2ccc3nc(C)sc3c2)c1` (single isomer, unassigned) [Example 925, 3-(4-(diisobutylamino)-3-fluoro-5-((2-methylbenzo [d]thiazol-6-yl)amino)phenyl)-4-methoxybutanoic acid] displayed an IC50 below 50 nM.

Compound `COCC(CC(=O)O)c1ccc(NC2CCOCC2)c(Nc2ccc(C#N)cc2)c1` (single isomer, unassigned) [Example 928 E1, 3-(3-((4-Cyanophenyl)amino)-4-((tetrahydro-2H-pyran-4-yl)amino)phenyl)-4-methoxybutanoic acid] yielded an IC50 above 50 nM. The compound `COCC(CC(=O)O)c1ccc(N2CCOC[C@@H]2C(C)C)c(Nc2ccc(C#N)cc2)c1` (single isomer, unassigned) [Example 929] returned a half-inhibitory concentration (IC50) below 50 nM. In the case of `COCC(CC(=O)O)c1ccc(N2CCOC[C@@H]2C(C)C)c(Nc2ccc(Cl)cc2)c1` (single isomer, unassigned) [Example 930] it was below 50 nM; in that of `CCOc1ncc(Nc2cc(C(COC)CC(=O)O)ccc2N2CCOC[C@@H]2C(C)C)cn1` (single isomer, unassigned) [Example 931], above 50 nM; in that of `COCC(CC(=O)O)c1ccc(N2CCOC[C@@H]2C(C)C)c(NC(=O)Nc2ccc(C#N)cc2)c1` (single isomer, unassigned) [Example 932], above 50 nM. In the case of `COCC(CC(=O)O)c1ccc(N2CCOC[C@@H]2C(C)C)c(Nc2ccc(C#N)cc2)c1` (single isomer, unassigned) [Example 933] it was above 50 nM. For `COCC(CC(=O)O)c1ccc(N2CCOC[C@@H]2C(C)C)c(Nc2ccc(Cl)cc2)c1` (single isomer, unassigned) [Example 934], the half-inhibitory concentration (IC50) was above 50 nM. To `CCOc1ncc(Nc2cc(C(CC)CC(=O)O)ccc2N(CC)C2CCN(Cc3ccccc3)CC2)cn1` (single isomer, unassigned) [Example 939, 3-(4-((1-Benzylpiperidin-4-yl)(ethyl)amino)-3-((2-ethoxypyrimidin-5-yl)amino)phenyl)pentanoic acid] belongs below 50 nM; to `CCC(CC(=O)O)c1ccc(N(CC)C2CCN(Cc3ccccc3)CC2)c(Nc2ccc(C#N)cc2)c1` (single isomer, unassigned) [Example 940, 3-(4-((1-benzyl-piperidin-4-yl)(ethyl)amino)-3-((4-cyano-phenyl)amino)phenyl) pentanoic acid], below 5 nM. As for `CCOc1ncc(Nc2cc(C(CC)CC(=O)O)ccc2N(CC)C2CCOC2)cn1` (single isomer, unassigned) [Example 945 D1, 3-(3-((2-Ethoxypyrimidin-5-yl)amino)-4-(ethyl(tetrahydrofuran-3-yl)amino)phenyl)pentanoic acid], the concentration for half-maximal inhibition (IC50) was below 50 nM.

The compound `CCC(CC(=O)O)c1ccc(N(CC)C2CCOC2)c(NC(=O)Nc2ccc(Cl)cc2F)c1` (single isomer, unassigned) [Example 946 D1, 3-(3-(3-(4-Chloro-2-fluorophenyl)ureido)-4-(ethyl(tetrahydrofuran-3-yl)amino)phenyl)pentanoic acid] returned an IC50 below 50 nM. To `CCC(CC(=O)O)c1ccc(N(CC)C2CCOC2)c(NC(=O)Nc2ccc(Cl)cc2F)c1` (single isomer, unassigned) [Example 946 D2, 3-(3-(3-(4-Chloro-2-fluorophenyl)ureido)-4-(ethyl(tetrahydrofuran-3-yl)amino)phenyl)pentanoic acid] belongs below 5 nM.

In turn, `CCC(CC(=O)O)c1ccc(N2CC(O)(c3ccc(F)cc3)C2)c(Nc2ccc(Cl)cc2)c1` (single isomer, unassigned) [Example 1253 E1, 3-(3-((4-Chlorophenyl)amino)-4-(3-(4-fluorophenyl)-3-hydroxyazetidin-1-yl)phenyl)pentanoic acid] had an IC50 below 50 nM. The compound `CCC(CC(=O)O)c1ccc(N2CC(O)(c3ccc(F)cc3)C2)c(Nc2ccc(Cl)cc2)c1` (single isomer, unassigned) [Example 1253 E2, 3-(3-((4-Chlorophenyl)amino)-4-(3-(4-fluorophenyl)-3-hydroxyazetidin-1-yl)phenyl)pentanoic acid] yielded an IC50 below 5 nM. In turn, `CCC(CC(=O)O)c1ccc(N2CC(O)(c3ccc(F)cc3)C2)c(Nc2ccc(C#N)cc2)c1` (single isomer, unassigned) [Example 1254, 3-(3-((4-cyanophenyl)amino)-4-(3-(4-fluorophenyl)-3-hydroxyazetidin-1-yl)phenyl)pentanoic acid] displayed an IC50 below 50 nM. Take `CCOc1ncc(Nc2cc(C(CC)CC(=O)O)ccc2N2CC(O)(c3ccc(F)cc3)C2)cn1` (single isomer, unassigned) [Example 1256, 3-(3-((2-ethoxypyrimidin-5-yl)amino)-4-(3-(4-fluorophenyl)-3-hydroxyazetidin-1-yl)phenyl)pentanoic acid]: the IC50 is above 50 nM. In the case of `CCC(CC(=O)O)c1ccc(N(CCOC)C2CCOCC2)c(Nc2ccc(Cl)cc2)c1` (single isomer, unassigned) [Example 1257 E1, 3-(3-((4-Chlorophenyl)amino)-4-((2-methoxyethyl)(tetrahydro-2H-pyran-4-yl)amino)phenyl)pentanoic acid] it was below 5 nM. In turn, `CCC(CC(=O)O)c1ccc(N(CCOC)C2CCOCC2)c(Nc2ccc(C#N)cc2)c1` (single isomer, unassigned) [Example 1258, 3-(3-((4-cyanophenyl)amino)-4-((2-methoxyethyl)(tetrahydro-2H-pyran-4-yl)amino)phenyl)pentanoic acid] displayed an IC50 below 5 nM. Regarding `CCC(CC(=O)O)c1ccc(N(CCOC)C2CCOCC2)c(Nc2cnc(OC)nc2)c1` (single isomer, unassigned) [Example 1259, 3-(4-((2-methoxyethyl)(tetrahydro-2H-pyran-4-yl)amino)-3-((2-methoxypyrimidin-5-yl)amino)phenyl)pentanoic acid], the half-maximal inhibitory concentration (IC50) is below 50 nM. Take `CCOc1ncc(Nc2cc(C(CC)CC(=O)O)ccc2N(CCOC)C2CCOCC2)cn1` (single isomer, unassigned) [Example 1260, 3-(3-((2-ethoxypyrimidin-5-yl)amino)-4-((2-methoxyethyl)(tetrahydro-2H-pyran-4-yl)amino)phenyl)pentanoic acid]: the 50% inhibitory concentration (IC50) was below 50 nM. In the case of `CCC(CC(=O)O)c1ccc(N(CCOC)C2CCOCC2)c(NC(=O)Nc2ccc(C)cc2)c1` (single isomer, unassigned) [Example 1264 E1, 3-(4-((2-Methoxyethyl)(tetrahydro-2H-pyran-4-yl)amino)-3-(3-(p-tolyl)ureido)phenyl)pentanoic acid] it was above 50 nM; in that of `CCC(CC(=O)O)c1ccc(N(CCOC)C2CCOCC2)c(NC(=O)Nc2ccc(Cl)cc2F)c1` (single isomer, unassigned) [Example 1265, 3-(3-(3-(4-chloro-2-fluorophenyl)ureido)-4-((2-methoxyethyl) (tetrahydro-2H-pyran-4-yl)amino)phenyl)pentanoic acid], below 50 nM. In turn, `CCN(c1ccc([C@H](CC(=O)O)C(F)(F)F)cc1NC(=O)Nc1ccc(Cl)cc1F)C1CCOCC1` (single isomer, unassigned) [Example 1267] registered an IC50 below 5 nM.

Compound `CCN(c1ccc([C@H](CC(=O)O)C(F)(F)F)cc1NC(=O)Nc1ccc(C#N)cc1)C1CCOCC1` (single isomer, unassigned) [Example 1268] gave an IC50 above 50 nM.

With `CCN(c1ccc([C@H](CC(=O)O)C(F)(F)F)cc1NC(=O)Nc1ccc(C)cc1)C1CCOCC1` (single isomer, unassigned) [Example 1269], the IC50 was below 50 nM. To `CCN(c1ccc([C@@H](CC(=O)O)C(F)(F)F)cc1NC(=O)Nc1ccc(Cl)cc1F)C1CCOCC1` (single isomer, unassigned) [Example 1270] belongs below 50 nM.

As to `CCN(c1ccc([C@@H](CC(=O)O)C(F)(F)F)cc1NC(=O)Nc1ccc(C#N)cc1)C1CCOCC1` (single isomer, unassigned) [Example 1271], the IC50 is above 50 nM. To `CCN(c1ccc([C@@H](CC(=O)O)C(F)(F)F)cc1NC(=O)Nc1ccc(C)cc1)C1CCOCC1` (single isomer, unassigned) [Example 1272] belongs below 50 nM. To `CCC1COCCN1c1ccc([C@@H](COC)CC(=O)O)cc1Nc1ccc(C#N)cc1` (single isomer, unassigned) [Example 1281] belongs above 50 nM. To `CCC1COCCN1c1ccc([C@@H](COC)CC(=O)O)cc1Nc1ccc(C#N)c(F)c1` (single isomer, unassigned) [Example 1282] belongs above 50 nM.
